Patent US10472341B2, “Bicyclic tetrahydrothiazepine derivatives useful for the treatment of neoplastic and/or infectious diseases” (APEIRON BIOLOGICS AG, priority 2015, dated 2019)

How the values were obtained:
non-stimulated PBMCs = assay: Non-stimulated PBMCs: cytokine secretion and signs of T-cell activation; format: cell-based, human
Text: This is an important finding for compounds that shall selectively act on T cells which have been activated by presence of antigen from pathogens or tumors, but shall not lead to an unwanted general activation of all T cells of a patient.

[1] = test system: aCD3/aCD28-stimulated human CD4+-T-cells; assay: IL-2 production and activation markers in aCD3/aCD28 stimulated isolated human CD4+-T-cells; format: cell-based; details: IL-2 production at 3 μM compound
Procedure, shortened: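 CD4+ T cells isolated from buffy-coat PBMCs by microbeads were plated in Xvivo medium (1.5*10^5 cells/well) and stimulated with anti-CD3/28 mAbs plus compound. IL-2 measured by ELISA in supernatants at 24 h or 48 h; CD25 and proliferation by flow cytometry, CD69 at 24 h. Activity classes based on IL-2 at 3 μM compound.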

[2] = test system: PBMCs & tumor cell lines (K562, Panc1, BxPc3, HT-29, A549, HTB46, HTB47, A375, M21, SKBR3, CRL2505); assay: PBMCs alone or in co-culture with tumor cells of diverse origin: cytokines and granzyme; format: cell-based, human; details: for Granzyme / IFN-gamma / IL-2: 3 μM
Description: Isolated PBMCs, NK cells or CD8 positive cells were plated in Xvivo medium at 1.5*10^5 cells per in 96 well culture plates in the presence of 0.3*10^4 tumor cells where indicated. Cytokine secretion was determined by ELISA, immune cell activation (using Beckman-Coulter Abs CD25-PC5, CD69-PC7), cell viability and numbers by flow cytometry (Beckman-Coulter FC500 or Gallios) using 7-AAD exclusion as criterion for living cells. The tumor cell lines M21 and K562 represent two widely used tumor lines of melanoma and leukemia origin, respectively. However, tumor cells are known to employ different mechanisms to suppress immune functions, therefore it was investigated if the effects of compounds on immune cell activities against tumor cells can be generalized to a wide array of tumor cells of very diverse origins from different types of tumors. PBMCs were isolated and incubated with and without compounds, either alone or in co-culture with different tumor cells.

[3] = test system: immune cells & anti-GD2-antibodies bound on M21 melanoma cells; assay: Immune cells stimulated by anti-GD2-antibody bound on M21 melanoma cells: TNF-alpha, activated NK cells; format: cell-based, human
Description: Isolated PBMCs, NK cells or CD8 positive cells were plated in Xvivo medium at 1.5*10^5 cells per in 96 well culture plates in the presence of 0.3*10^4 tumor cells where indicated. Cytokine secretion was determined by ELISA, immune cell activation (using Beckman-Coulter Abs CD25-PC5, CD69-PC7), cell viability and numbers by flow cytometry (Beckman-Coulter FC500 or Gallios) using 7-AAD exclusion as criterion for living cells. […] Antibodies that are bound to pathogens or pathogen-infected cells trigger activation of immune cells via Fc-receptors, that are expressed particularly on NK cells and myeloid cells. This mechanism is also utilized for cancer therapies when therapeutic antibodies against antigens which are preferentially expressed on cancer cells are administrated to patients which in turn recruit and activate immune cells to directly attack cancer cells. The GD2-antigen is strongly expressed on cancer cells of particular origins (among neuroblastoma and melanoma) and is therefore developed clinically as anti-cancer therapy. For M21 melanoma cells, GD2 is the only antigen that has been characterized to be accessible as tumor antigen. Therefore, an anti-GD2-antibody that was available in clinically grade quality was employed to test whether compounds can enhance the Fc-receptor mediated activation of immune cells to tumor-cell bound therapeutic antibodies.

[4] = PBMC & M21 tumor cells & anti-GD2 Ab high concentration, 0.3 μM
[5] = PBMC & M21 tumor cells & anti-GD2 Ab high concentration, 1 μM
[6] = PBMC & M21 tumor cells & anti-GD2 Ab high concentration, 3 μM
[7] = PBMC & M21 tumor cells & anti-GD2 Ab high concentration, 10 μM
[8] = PBMC & M21 tumor cells & anti-GD2 Ab low concentration, 0.3 μM
[9] = PBMC & M21 tumor cells & anti-GD2 Ab low concentration, 1 μM
[10] = PBMC & M21 tumor cells & anti-GD2 Ab low concentration, 3 μM
[11] = PBMC & M21 tumor cells & anti-GD2 Ab low concentration, 10 μM
[12] = PBMC & M21 tumor cells only, 0.3 μM
[13] = PBMC & M21 tumor cells only, 1 μM
[14] = PBMC & M21 tumor cells only, 3 μM
[15] = PBMC & M21 tumor cells only, 10 μM

Cl.N[C@H]1CSc2cc(F)c(C(=O)NCCCC(F)(F)F)cc2N(Cc2ccc(Cl)cc2)C1=O [Example 40, (3R)-3-amino-5-[(4-chlorophenyl)methyl]-8-fluoro-4-oxo-N-(4,4,4-trifluorobutyl)-2,3,4,5-tetrahydro-1,5-benzothiazepine-7-carboxamide hydrochloride]
cytokine secretion or other signs of T-cell activation (non-stimulated PBMCs): did not enhance cytokine secretion or other signs of T-cell activation
Activity Class CD4+ [1]: B (IL-2 production at 3 μM compound concentration between 2-10 ng/mL)
Granzyme ([2]; PBMC & A375): 0.053 ng/mL
IFN-gamma ([2]; PBMC & A375): 0.142 ng/mL
IL-2 ([2]; PBMC & A375): 0.278 ng/mL
Granzyme ([2]; PBMC & A549): 0.020 ng/mL
IFN-gamma ([2]; PBMC & A549): 0.214 ng/mL
IL-2 ([2]; PBMC & A549): 0.018 ng/mL
Granzyme ([2]; PBMC & BxPc3): 0.008 ng/mL
IFN-gamma ([2]; PBMC & BxPc3): 0.088 ng/mL
IL-2 ([2]; PBMC & BxPc3): 0.092 ng/mL
Granzyme ([2]; PBMC & CRL2505): 0.780 ng/mL
IFN-gamma ([2]; PBMC & CRL2505): 0.663 ng/mL
IL-2 ([2]; PBMC & CRL2505): 0.012 ng/mL
Granzyme ([2]; PBMC & HT-29): 0.003 ng/mL
IFN-gamma ([2]; PBMC & HT-29): 0.022 ng/mL
IL-2 ([2]; PBMC & HT-29): 0.033 ng/mL
Granzyme ([2]; PBMC & HTB46): 0.404 ng/mL
IFN-gamma ([2]; PBMC & HTB46): 0.665 ng/mL
IL-2 ([2]; PBMC & HTB46): 0.168 ng/mL
Granzyme ([2]; PBMC & HTB47): 0.072 ng/mL
IFN-gamma ([2]; PBMC & HTB47): 0.277 ng/mL
IL-2 ([2]; PBMC & HTB47): 0.075 ng/mL
Granzyme ([2]; PBMC & K562): 0.011 ng/mL
IFN-gamma ([2]; PBMC & K562): 0.000 ng/mL
IL-2 ([2]; PBMC & K562): 0.000 ng/mL
Granzyme ([2]; PBMC & M21): 0.001 ng/mL
IFN-gamma ([2]; PBMC & M21): 0.000 ng/mL
IL-2 ([2]; PBMC & M21): 0.037 ng/mL
Granzyme ([2]; PBMC & Panc1): 0.005 ng/mL
IFN-gamma ([2]; PBMC & Panc1): 0.000 ng/mL
IL-2 ([2]; PBMC & Panc1): 0.013 ng/mL
Granzyme ([2]; PBMC & SKBR3): 0.001 ng/mL
IFN-gamma ([2]; PBMC & SKBR3): 0.000 ng/mL
IL-2 ([2]; PBMC & SKBR3): 0.005 ng/mL
Granzyme ([2]; PBMC only): 0.001 ng/mL
IFN-gamma ([2]; PBMC only): 0.000 ng/mL
IL-2 ([2]; PBMC only): 0.000 ng/mL
secretion of cytokines (IL-2, IFN-gamma) and granzyme ([2]; PBMCs in co-culture with diverse tumor cell lines): enhanced secretion of cytokines and granzyme strongly specifically upon tumor cell contact in diverse tumor cell lines
enhancement of cytokine and granzyme secretion ([2]; PBMCs in the absence of tumor cells): such effect was not detected in the absence of tumor cells
TNF-alpha [3, 4]: 106.30 pg/mL
strongly activated NK cells [3, 4]: 23.55 % CD25+CD69+
TNF-alpha [3, 5]: 142.98 pg/mL
strongly activated NK cells [3, 5]: 32.63 % CD25+CD69+
TNF-alpha [3, 6]: 192.34 pg/mL
strongly activated NK cells [3, 6]: 42.50 % CD25+CD69+
TNF-alpha [3, 7]: 257.96 pg/mL
strongly activated NK cells [3, 7]: 42.22 % CD25+CD69+
TNF-alpha [3, 8]: 36.53 pg/mL
strongly activated NK cells [3, 8]: 6.92 % CD25+CD69+
TNF-alpha [3, 9]: 55.72 pg/mL
strongly activated NK cells [3, 9]: 11.88 % CD25+CD69+
TNF-alpha [3, 10]: 93.25 pg/mL
strongly activated NK cells [3, 10]: 17.22 % CD25+CD69+
TNF-alpha [3, 11]: 114.88 pg/mL
strongly activated NK cells [3, 11]: 20.25 % CD25+CD69+
TNF-alpha [3, 12]: 17.47 pg/mL
strongly activated NK cells [3, 12]: 0.75 % CD25+CD69+
TNF-alpha [3, 13]: 17.59 pg/mL
strongly activated NK cells [3, 13]: 1.10 % CD25+CD69+
TNF-alpha [3, 14]: 28.95 pg/mL
strongly activated NK cells [3, 14]: 2.40 % CD25+CD69+
TNF-alpha [3, 15]: 38.00 pg/mL
strongly activated NK cells [3, 15]: 2.19 % CD25+CD69+
reactivity of immune cells to anti-GD2-antibodies bound on M21 melanoma cells ([3]; cytokine secretion, NK cell activation): enhanced reactivity of immune cells to anti-GD2-antibodies bound on M21 melanoma cells, resulting in increased secretion of cytokine and activation of NK cells
